Assays:
Wnt/β-catenin pathway [1] = test: Wnt/β-catenin pathway inhibitory activity: cytoplasmic β-catenin by western blot in Wnt3a-CM treated HEK293 cells; assay type: cell-based, human; settings: Wnt3a-CM, 15 hours
Description: HEK293 cells (human embryonic kidney cells) and Wnt3a-secreting L cells were obtained from the ATCC (American Type Culture Collection, USA) and were cultured in DMEM (Dulbecco's modified Eagle's medium) supplemented with 10% FBS (fetal bovine serum), 120 μg/mL penicillin and 200 μg/mL streptomycin.
Wnt3a-CM (Wnt3a-conditioned medium) was prepared by culturing Wnt3a-secreting L cells in DMEM supplemented with 10% [v/v] FBS (fetal bovine serum) for 4 days and recovering the DMEM medium and sterilizing by filtering through a 0.22-μm filter. Then, after adding a fresh DMEM (supplemented with 10% [v/v] FBS) medium to the cells and culturing for 3 days, the medium was recovered by the same method and then combined with the previously prepared Wnt3a-CM.
After treating HEK293 cells with the Wnt3a-CM, the compound of Preparation Example 30 or the compound of Preparation Example 31 (10, 20 or 40 μM) for 15 hours and extracting cytoplasmic proteins from the cells, the amount of β-catenin regulating the CRT (β-catenin response transcription) of the Wnt/β-catenin pathway in the cells was investigated by western blot using a β-catenin antibody (BD Transduction Laboratories, USA) and the ECL system (Santa Cruz Biotechnology).
The Wnt/β-catenin pathway inhibitory activity of the Preparation Example 32 compound was evaluated in the same manner as in Example <1-1>. Briefly, after treating HEK293 cells with the Wnt3a-CM or the compound of Preparation Example 32 (10 or 20 μM) for 15 hours and extracting cytoplasmic proteins from the cells, the amount of β-catenin regulating the CRT (β-catenin response transcription) of the Wnt/β-catenin pathway in the cells was investigated by western blot using a β-catenin antibody (BD Transduction Laboratories, USA) and the ECL system (Santa Cruz Biotechnology).

Wnt/β-catenin pathway [2] = test: Wnt/β-catenin pathway inhibitory activity: cytoplasmic β-catenin by western blot in Wnt3a-CM treated ARPE-19 cells; assay type: cell-based; settings: ARPE-19 human retinal epithelial cells, Wnt3a-CM, compound 3 or 6 μM, 24 hours
Description: ARPE-19 cells (human retinal epithelial cells) and Wnt3a-secreting L cells were obtained from the ATCC (American Type Culture Collection, USA) and were cultured in DMEM (Dulbecco's modified Eagle's medium) supplemented with 10% FBS, 120 μg/mL penicillin and 200 μg/mL streptomycin. Wnt3a-CM (Wnt3a-conditioned medium) was prepared by culturing Wnt3a-secreting L cells in DMEM supplemented with 10% [v/v] FBS (fetal bovine serum) for 4 days and recovering the DMEM medium and sterilizing by filtering through a 0.22-μm filter. Then, after adding fresh DMEM (supplemented with 10% [v/v] FBS) to the cells and culturing for 3 days, Wnt3a-CM was recovered.
After treating ARPE-19 cells with the Wnt3a-CM, the compound of Preparation Example 33 or the compound of Preparation Example 34 (3 or 6 μM) for 24 hours and extracting cytoplasmic proteins from the cells, the amount of β-catenin regulating the CRT (β-catenin response transcription) of the Wnt/β-catenin pathway in the cells was investigated by western blot using a β-catenin antibody (BD Transduction Laboratories, USA) and the ECL system (Santa Cruz Biotechnology).

[3] = system: macular edema-induced mouse model; test: Inhibition of vascular leakage in the retina, intraperitoneal administration, laser-induced macular edema mouse model (OCT); assay type: in vivo, C57BL/6 mouse; settings: 1 mg/kg intraperitoneal every day for 7 days, OCT on day 6, vs vehicle
Description: After inducing macular edema in a C57BL/6 mouse and intraperitoneally administering the compound of Preparation Example 33, vascular leakage in the retina was investigated.
Briefly, after anesthetizing an 8-to-12-week-old C57BL/6 mouse with Zoletil (40 mg/kg) and xylazine (5 mg/kg), the pupil was dilated with 1% tropicamide. Hydroxypropylmethyl cellulose was dropped onto the eye and a microscope cover glass was used as a contact lens. Then, 3-5 laser burns were made in the space between the retinal blood vessels around the optic disc (Zeiss 1149-630, laser power 200 mW, duration 0.05 s, spot size 50 μm).
After the laser irradiation, 10 mL/kg of distilled water as a vehicle was intraperitoneally administered to a control group (FIG. 5, A) and 1 mg/kg of the compound of Preparation Example 33 (dissolved distilled water) was intraperitoneally administered to a test group (FIG. 5, B) every day for 7 days. On day 6, 10% sodium fluorescein was intraperitoneally administered and optical coherence tomography was conducted.

[4] = In vivo PK after oral administration: concentration in blood plasma and eye (LC-MS/MS); parameters: species or system ICR mouse; settings: 10 mg/kg oral gavage, plasma and eye at 0.5 hour and 2 hours
Description: Male ICR mice (8 weeks, 30-35 g) were purchased from Samtako Co. (Osan, Korea). The test animals were acclimatized for a week under the following conditions: temperature 23±2° C., relative humidity 55±10%, illumination intensity 150-300 lux, ventilation frequency 15-20 times/h, illumination cycle 12 h (07:00-19:00). All the animal experiments were approved by the Animal Care and Use Committee of Kyungpook National University (Study No. 2016-0043).
The mice were fasted for 12 hours before drug administration. Feed and water were supplied ad libitum. The compound of Preparation Example 33 was dissolved in DW:PEG 400 (=60:40 (v/v)) and administered by oral gavage at a dose of 10 mg/kg.
0.5 hour and 2 hours after the oral administration, blood samples were taken from the abdominal artery. […] of a plasma sample obtained after centrifuging the blood sample at 13,000 rpm for 5 minutes was stored at −80° C. until use for analysis. […]
In order to investigate the distribution of the compound of the present disclosure in the target tissue, the compound was orally administered at a dose of 10 mg/kg and the concentration of the compound in the blood plasma and eye was measured. The sampling times were determined as 0.5 hour and 2 hours based on the peak plasma concentration and the distribution phase. […]

C57BL/6J mice = test: Tissue toxicity, long-term (8 weeks) administration: blood GPT, BUN, liver and kidney sections; assay type: in vivo, C57BL/6J mouse; settings: different doses for 8 weeks
Description: A long-term toxicity test was conducted by administering the compound of Preparation Example 33 at different doses to C57BL/6J mice (10 mice per group) for 8 weeks. In order to investigate the effect on different organs (tissues) of the animals, blood was taken from the animals of the test group to which the compound of Preparation Example 33 was administered and the control group to which only PEG 400:Tween 80:ethanol (8:1:1, v:v:v) was administered 8 weeks later and the level of GPT (glutamate-pyruvate transferase) and BUN (blood urea nitrogen) in the blood was measured using Select E (Vital Scientific NV, Netherlands).

[5] = system: macular edema-induced mouse model; test: Inhibition of vascular leakage in the eye, intravitreal administration, laser-induced macular edema mouse model (FA and OCT); assay type: in vivo, C57BL/6 mouse; settings: 100 ng/0.5 μL in DMSO intravitreal 24 hours after laser, read one week later, vs DMSO control group
Description: Macular edema was induced in a 10-week-old C57BL/6 mouse by irradiating a laser. After anesthetizing the mouse with ketamine (70 mg/kg) and xylazine (30 mg/kg), the pupil was dilated with 1% tropicamide. Hydroxypropylmethyl cellulose was dropped onto the eye and a microscope cover glass was used as a contact lens. Then, five laser burns were made in the space between the blood vessels around the optic disc (Zeiss 1149-630, laser power 180 mW, duration 0.1 s, spot size 50 μm). In this state, the blood vessel size and permeability were investigated by fluorescein angiography (FA) and optical coherence tomography (OCT). 24 hours after the laser irradiation, 0.5 μL of DMSO (dimethyl sulfoxide) was injected to a control group and 100 ng/0.5 μL of the Preparation Example 33 compound dissolved in DMSO was injected to a test group, into the vitreous cavity of the mouse. One week later, fluorescein angiography and optical coherence tomography were conducted again.

## C=C1CCCC2C1(C)CCC(C)C2(C)CC1=C2OC(C)(C)N=C2C=C(OC)C1=O [Preparation Example 30, 18-methoxy-22,22-dimethyl-16-[{(5R,8S,9R,10S)-5,8,9-trimethyl-4-methylenedecahydronaphthalen-9-yl}methyl]benzo[d]-oxazol-17(2H)-one]
Wnt/β-catenin pathway [1]; compound 10, 20 or 40 μM
  level of β-catenin in the cytoplasm (western blot): decreased level of β-catenin

## C=C1CCC[C@@H]2[C@@](C)(CC3=C(O)C(=O)C=C(OCC)C3=O)[C@H](C)CC[C@@]12C [Preparation Example 34, 3-[[(1S,2R,4aR,8aR)-1,2,4a-trimethyl-5-methylidene-3,4,6,7,8,8a-hexahydro-2H-naphthalen-1-yl]methyl]-5-ethoxy-2-hydroxycyclohexa-2,5-diene-1,4-dione]
Wnt/β-catenin pathway [2]
  level of β-catenin in the cytoplasm (western blot): decreased level of β-catenin

## C=C1CCC[C@H]2[C@](C)(CC3=C(O)C(=O)C=C(OC)C3=O)[C@@H](C)CC[C@]12C [Preparation Example 33, 3-[[(1R,2S,4aS,8aS)-1,2,4a-trimethyl-5-methylidene-3,4,6,7,8,8a-hexahydro-2H-naphthalen-1-yl]methyl]-2-hydroxy-5-methoxycyclohexa-2,5-diene-1,4-dione]
[3]
  vascular leakage (optical coherence tomography): inhibited vascular leakage
Wnt/β-catenin pathway [2]
  level of β-catenin in the cytoplasm (western blot): decreased level of β-catenin
[4]
  distribution in the eye after oral administration: highly targeted in the eye
  permeability for the target tissue (eye): high permeability
C57BL/6J mice
  liver and kidney tissue sections under optical microscope: no special abnormality
C57BL/6J mice; related with kidney toxicity
  BUN (blood urea nitrogen) in the blood, control group vs test group: no significant difference
C57BL/6J mice; related with liver toxicity
  GPT (glutamate-pyruvate transferase) in the blood, control group vs test group: no significant difference
[5]
  vascular leakage (fluorescein angiography and optical coherence tomography): distinctly decreased vascular leakage

## C=C1CCCC2C1(C)CCC(C)C2(C)CC1=C(O)C(=O)C=C(NCCc2ccccc2)C1=O (stereo not drawn) [Preparation Example 32]
Wnt/β-catenin pathway [1]; compound 10 or 20 μM
  level of β-catenin in the cytoplasm (western blot): decreased level of β-catenin

## C=C1CCCC2C1(C)CCC(C)C2(C)Cc1c(O)c(OC)cc2nc(C)oc12 [Preparation Example 31, 18-methoxy-22-methyl-16-[{(5S,8S,9R,10S)-5,8,9-trimethyl-4-methylenedecahydronaphthalen-9-yl}methyl]benzo[d]-oxazol-17-ol]
Wnt/β-catenin pathway [1]; compound 10, 20 or 40 μM
  level of β-catenin in the cytoplasm (western blot): decreased level of β-catenin

Source: patent publication US10918625B2, “Use of sesquiterpene derivative” (KOOKMIN UNIVERSITY INDUSTRY ACADEMY COOPERATION FOUNDATION, priority 2016, dated 2021)
